# Patent US9346812B2, “Substituted pyrrolopyrimidine compounds, compositions thereof, and methods of treatment therewith” (Signal Pharmaceutical LLC, priority 2013, dated 2016)
# System: CAL51 cell proliferation
# Assay: Cell Titer Glo Proliferation Assay (CAL51)
# Type: cell-based, human
# Conditions: Homo sapiens, CAL-51; CAL51 cell proliferation, 72 h, Cell Titer Glo luminescence; read-out: Act. Level
# Summary of the method: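 Viability is measured by CellTiter-Glo luminescence after 72 h of compound exposure. CAL51 cells were seeded in growth medium with 10% FBS and 2 mM glutamine, cultured overnight, then dosed with compound dilutions, vehicle held at 0.2% DMSO.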
row,Compound,IC50
1,"CNC(=O)c1ccc(Nc2nc(OC3CCOCC3)c3c(-c4nccn4C)c[nH]c3n2)c(OC)c1 [Example 172, 3-methoxy-N-methyl-4-(5-(1-methyl-1H-imidazol-2-yl)-4-(tetrahydro-2H-pyran-4-yloxy)-7H-pyrrolo[2,3-d]pyrimidin-2-ylamino)benzamide]",1000 to 10000 nM
2,"CNC(=O)c1ccc(Nc2nc(OC3CCOCC3)c3c(-c4ncco4)c[nH]c3n2)c(OC)c1 [Example 173, 3-methoxy-N-methyl-4-(5-(oxazol-2-yl)-4-(tetrahydro-2H-pyran-4-yloxy)-7H-pyrrolo[2,3-d]pyrimidin-2-ylamino)benzamide]",400 to 1000 nM
3,"CNC(=O)c1ccc(Nc2nc(OC3CCOCC3)c3c(-c4nnco4)c[nH]c3n2)c(OC)c1 [Example 174, 4-(5-(1,3,4-oxadiazol-2-yl)-4-(tetrahydro-2H-pyran-4-yloxy)-7H-pyrrolo[2,3-d]pyrimidin-2-ylamino)-3-methoxy-N-methylbenzamide]",400 to 1000 nM
4,"CNC(=O)c1ccc(Nc2nc(OC3CCOCC3)c3c(-c4cccc([C@H](C)O)c4)c[nH]c3n2)c(OC)c1 [Example 175, (S)-4-(5-(3-(1-hydroxyethyl)phenyl)-4-(tetrahydro-2H-pyran-4-yloxy)-7H-pyrrolo[2,3-d]pyrimidin-2-ylamino)-3-methoxy-N-methylbenzamide]",100 to 400 nM
5,"Cc1cc(C(=O)N(C)C)ccc1Nc1nc(O[C@H]2CCOC2)c2c(-c3ccncc3)c[nH]c2n1 [Example 176, (S)-N,N,3-trimethyl-4-(5-(pyridin-4-yl)-4-(tetrahydrofuran-3-yloxy)-7H-pyrrolo[2,3-d]pyrimidin-2-ylamino)benzamide]",100 to 400 nM
6,"CNC(=O)c1ccc(Nc2nc(OC)c3c(-c4cnn(C)c4)c[nH]c3n2)c(OC)c1 [Example 177, 3-methoxy-4-(4-methoxy-5-(1-methyl-1H-pyrazol-4-yl)-7H-pyrrolo [2,3-d]pyrimidin-2-ylamino)-N-methylbenzamide]",100 to 400 nM
7,"CNC(=O)c1ccc(Nc2nc(O[C@H]3CCOC3)c3c(-c4ccnc(C)c4)c[nH]c3n2)c(OC)c1 [Example 178, (S)-3-methoxy-N-methyl-4-(5-(2-methylpyridin-4-yl)-4-(tetrahydrofuran-3-yloxy)-7H-pyrrolo [2,3-d]pyrimidin-2-ylamino) benzamide]",< 100 nM
8,"CNC(=O)c1ccc(Nc2nc(OC3COC3)c3c(-c4ccc5nc(C)oc5c4)c[nH]c3n2)c(OC)c1 [Example 179, 3-methoxy-N-methyl-4-(5-(2-methylbenzo[d]oxazol-6-yl)-4-(oxetan-3-yloxy)-7H-pyrrolo[2,3-d]pyrimidin-2-ylamino)benzamide]",< 100 nM
9,"CNC(=O)c1ccc(OC)c(Nc2nc(OC(C)C)c3c(-c4ccc5nc(C)oc5c4)c[nH]c3n2)c1 [Example 180, 3-(4-isopropoxy-5-(2-methylbenzo[d]oxazol-6-yl)-7H-pyrrolo[2,3-d]pyrimidin-2-ylamino)-4-methoxy-N-methylbenzamide]",100 to 400 nM
10,"CNC(=O)c1ccc(OC)c(Nc2nc(OC3CCOCC3)c3c(-c4ccc5nc(C)oc5c4)c[nH]c3n2)c1 [Example 181, 4-methoxy-N-methyl-3-(5-(2-methylbenzo[d]oxazol-6-yl)-4-(tetrahydro-2H-pyran-4-yloxy)-7H-pyrrolo[2,3-d]pyrimidin-2-ylamino)benzamide]",100 to 400 nM
11,"CNC(=O)c1ccc(-c2c[nH]c3nc(Nc4ccc(C(=O)NC)cc4OC)nc(O[C@H]4CCOC4)c23)cc1 [Example 182, (S)-3-methoxy-N-methyl-4-(5-(4-(methylcarbamoyl)phenyl)-4-(tetrahydrofuran-3-yloxy)-7H-pyrrolo[2,3-d]pyrimidin-2-ylamino)benzamide]",< 100 nM
12,"CNC(=O)c1ccc(Nc2nc(OC3CCOCC3)c3c(-c4ccc5nc(C)oc5c4)c[nH]c3n2)c(OC)n1 [Example 183, 6-methoxy-N-methyl-5-(5-(2-methylbenzo[d]oxazol-6-yl)-4-(tetrahydro-2H-pyran-4-yloxy)-7H-pyrrolo[2,3-d]pyrimidin-2-yalmino)picolinamide]",100 to 400 nM
13,"CNC(=O)c1ccc(Nc2nc(OC3CCOCC3)c3c(-c4cnn(C)c4)c[nH]c3n2)c(OC)c1 [Example 184, 3-methoxy-N-methyl-4-(5-(1-methyl-1H-pyrazol-4-yl)-4-(tetrahydro-2H-pyran-4-yloxy)-7H-pyrrolo[2,3-d]pyrimidin-2-ylamino)benzamide]",< 100 nM
14,"CNC(=O)c1ccc(Nc2nc(OC(C)C)c3c(-c4ccnc(OC)c4)c[nH]c3n2)c(OC)c1 [Example 185, 4-(4-isopropoxy-5-(2-methoxypyridin-4-yl)-7H-pyrrolo [2,3-d]pyrimidin-2-ylamino)-3-methoxy-N-methylbenzamide]",< 100 nM
15,"CNC(=O)c1ccc(Nc2nc(OC3CCOCC3)c3c(-c4cnccn4)c[nH]c3n2)c(OC)c1 [Example 186, 3-methoxy-N-methyl-4-(5-(pyrazin-2-yl)-4-(tetrahydro-2H-pyran-4-yloxy)-7H-pyrrolo[2,3-d]pyrimidin-2-ylamino) benzamide]",100 to 400 nM
16,"CNC(=O)c1ccc(Nc2nc(OC(C)C)c3c(-c4cccc(S(C)(=O)=O)c4)c[nH]c3n2)c(OC)c1 [Example 187, 4-(4-isopropoxy-5-(3-(methylsulfonyl)phenyl)-7H-pyrrolo[2,3-d]pyrimidin-2-ylamino)-3-methoxy-N-methylbenzamide]",100 to 400 nM

row,Compound,IC50
1,"CNC(=O)c1ccc(-c2c[nH]c3nc(Nc4ccc(C(=O)NC)cc4OC)nc(OC(C)C)c23)cc1 [Example 188, 4-(4-isopropoxy-5-(4-(methylcarbamoyl)phenyl)-7H-pyrrolo[2,3-d]pyrimidin-2-ylamino)-3-methoxy-N-methylbenzamide]",< 100 nM
2,"CNC(=O)c1ccc(Nc2nc(OC(C)C)c3c(-c4cnn(C)c4)c[nH]c3n2)c(OC)c1 [Example 189, 4-(4-isopropoxy-5-(1-methyl-1H-pyrazol-4-yl)-7H-pyrrolo[2,3-d]pyrimidin-2-ylamino)-3-methoxy-N-methylbenzamide]",< 100 nM
3,"CNC(=O)c1ccc(Nc2nc(OC)c3c(-c4ccncc4)c[nH]c3n2)c(OC)c1 [Example 190, 3-methoxy-4-(4-methoxy-5-(pyridin-4-yl)-7H-pyrrolo[2,3-d]pyrimidin-2-ylamino)-N-methylbenzamide]",< 100 nM
4,"CNC(=O)c1ccc(Nc2nc(OC3CCOCC3)c3c(-c4ccc5nc(C)oc5c4)c[nH]c3n2)c(OC(F)(F)F)c1 [Example 192, N-methyl-4-(5-(2-methylbenzo[d]oxazol-6-yl)-4-(tetrahydro-2H-pyran-4-yloxy)-7H-pyrrolo[2,3-d]pyrimidin-2-ylamino)-3-(trifluoromethoxy)benzamide]",100 to 400 nM
5,"CNC(=O)c1ccc(Nc2nc(OC(C)C)c3c(-c4ccc(-c5ncc[nH]5)cc4)c[nH]c3n2)c(OC)c1 [Example 193, 4-(5-(4-(1H-imidazol-2-yl)phenyl)-4-isopropoxy-7H-pyrrolo [2,3-d]pyrimidin-2-ylamino)-3-methoxy-N-methylbenzamide]",< 100 nM
6,"CNC(=O)c1ccc(Nc2nc(OC(C)C)c3c(-c4ccnc(N)c4)c[nH]c3n2)c(OC)c1 [Example 194, 4-(5-(2-aminopyridin-4-yl)-4-isopropoxy-7H-pyrrolo[2,3-d]pyrimidin-2-ylamino)-3-methoxy-N-methylbenzamide]",< 100 nM
7,"CNC(=O)c1ccc(Nc2nc(OC3CCOCC3)c3c(-c4ccc(-c5nccn5C)cc4)c[nH]c3n2)c(OC)c1 [Example 195, 3-methoxy-N-methyl-4-(5-(4-(1-methyl-1H-imidazol-2-yl)phenyl)-4-(tetrahydro-2H-pyran-4-yloxy)-7H-pyrrolo[2,3-d]pyrimidin-2-ylamino)benzamide]",1000 to 10000 nM
8,"CCOc1ccc(-c2c[nH]c3nc(Nc4ccc(C(=O)NC)cc4OC)nc(OC(C)C)c23)cn1 [Example 196, 4-(5-(6-ethoxypyridin-3-yl)-4-isopropoxy-7H-pyrrolo[2,3-d]pyrimidin-2-ylamino)-3-methoxy-N-methylbenzamide]",100 to 400 nM
9,"CNC(=O)c1ccc(Nc2nc(OC3CCOCC3)c3c(-c4ccc(-c5nc(C)c(C)[nH]5)cc4)c[nH]c3n2)c(OC)c1 [Example 197, 4-(5-(4-(4,5-dimethyl-1H-imidazol-2-yl)phenyl)-4-(tetrahydro-2H-pyran-4-yloxy)-7H-pyrrolo[2,3-d]pyrimidin-2-ylamino)-3-methoxy-N-methylbenzamide]",100 to 400 nM
10,"CNC(=O)c1ccc(Nc2nc(OC3CCC3)c3c(-c4ccc5nc(C)oc5c4)c[nH]c3n2)c(OC)c1 [Example 198, 4-(4-cyclobutoxy-5-(2-methylbenzo[d]oxazol-6-yl)-7H-pyrrolo[2,3-d]pyrimidin-2-ylamino)-3-methoxy-N-methylbenzamide]",< 100 nM
11,"CNC(=O)c1ccc(Nc2nc(OC(C)C)c3c(-c4ccnc(NC)c4)c[nH]c3n2)c(OC)c1 [Example 199, 4-(4-isopropoxy-5-(2-(methylamino)pyridin-4-yl)-7H-pyrrolo[2,3-d]pyrimidin-2-ylamino)-3-methoxy-N-methylbenzamide]",< 100 nM
12,"CNC(=O)c1ccc(Nc2nc(OC3CCOCC3)c3c(-c4ccncc4)c[nH]c3n2)c(C(C)C)c1 [Example 200, 3-isopropyl-N-methyl-4-(5-(pyridin-4-yl)-4-(tetrahydro-2H-pyran-4-yloxy)-7H-pyrrolo[2,3-d]pyrimidin-2-ylamino) benzamide]",100 to 400 nM
13,"CNC(=O)c1ccc(Nc2nc(OC(C)C)c3c(-c4ccnc(C)c4)c[nH]c3n2)c(OC)c1 [Example 201, 4-(4-isopropoxy-5-(2-methyl-pyridin-4-yl)-7H-pyrrolo[2,3-d]pyrimidin-2-ylamino)-3-methoxy-N-methylbenzamide]",< 100 nM
14,"CNC(=O)c1ccc(Nc2nc(NC(C)C)c3c(-c4ccc5nc(C)oc5c4)c[nH]c3n2)c(OC)c1 [Example 202, 4-(4-(isopropylamino)-5-(2-methylbenzo[d]oxazol-6-yl)-7H-pyrrolo[2,3-d]pyrimidin-2-ylamino)-3-methoxy-N-methylbenzamide]",< 100 nM
15,"CC[C@@H](C)Oc1nc(Nc2ccc(C(=O)NC)cc2OC)nc2[nH]cc(-c3ccc4nc(C)oc4c3)c12 [Example 203, (R)-4-(4-sec-butoxy-5-(2-methylbenzo[d]oxazol-6-yl)-7H-pyrrolo[2,3-d]pyrimidin-2-ylamino)-3-methoxy-N-methylbenzamide]",100 to 400 nM
